# Target: T1, Glucokinase (Homo sapiens, UniProt P35557)
# T1 construct: purchased ProteinOne Inc
# T1 sequence (P35557 1-465): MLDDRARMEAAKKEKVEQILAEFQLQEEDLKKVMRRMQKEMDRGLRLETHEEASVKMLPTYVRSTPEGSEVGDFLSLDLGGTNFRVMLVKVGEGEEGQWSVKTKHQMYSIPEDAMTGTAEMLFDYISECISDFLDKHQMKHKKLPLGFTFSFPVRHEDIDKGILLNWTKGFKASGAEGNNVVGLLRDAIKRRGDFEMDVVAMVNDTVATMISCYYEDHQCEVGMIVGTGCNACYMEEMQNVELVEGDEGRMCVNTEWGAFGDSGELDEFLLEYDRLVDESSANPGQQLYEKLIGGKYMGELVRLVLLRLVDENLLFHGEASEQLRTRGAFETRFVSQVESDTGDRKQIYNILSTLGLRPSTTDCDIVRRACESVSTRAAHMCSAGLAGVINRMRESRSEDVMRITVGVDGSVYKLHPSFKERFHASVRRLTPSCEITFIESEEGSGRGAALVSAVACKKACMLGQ
# Test: Glucokinase activation assay (NADPH absorbance at 340 nm)
# Type: biochemical
# Conditions: glucokinase (ProteinOne Inc.), 5 mM D(+)-glucose, 24° C., 90 minutes
# Experimental: The amounts of glucokinase activation were determined by measuring the levels of NADPH (the final metabolite of glucose through glucokinase-mediated phospho-rylation) and then calculating to glucokinase activities.
# Glucokinase (ProteinOne Inc.) was added, in the concentration of 100 ng/uL, to a enzyme-reaction medium (25 mM HEPES pH 7, 25 mM KCL, 1 mM MgCl, 5 mM D(+)-glucose, 1 mM ATP, 1 mM NADP, 1 mM DTT, and 2.5 u/mL G6PDH). Each compound in predetermined concentrations was added to the enzyme-reaction medium and then absorbance (First Absorbance) was measured at 340 nm of wavelength. After measuring the first absorbance, each reaction mixture was incubated at 24° C. for 90 minutes and then absorbance (Second Absorbance) was re-measured at 340 nm of wavelength. Using changes between First Absorbance and Second Absorbance, glucokinase activity was calculated. In the calculation, a maximum activity of the test compound (Emax), in comparison to the control group (no treatment of compound) was determined and then EC50 was calculated using the software for statistical analysis “Prism”, based on the activity-changes according to concentrations of the test compounds.
# The amounts of glucokinase activation of the compounds of Comparative Examples 1 and 2 were determined, in accordance with the same procedures as in Test Example 1.
row,Compound,EC50 [nM]
1,3-{2-[4-(4-fluorobenzoylamino)phenyl]ethyl}-5-(2-methoxy-(1S)-methyl-ethoxy)-N-(t hiazol-2-yl)-benzamide [Example 139],371
2,3-[trans-2-(4-methoxyphenyl)vinyl]-5-(2-methoxy-(1S)-methyl-ethoxy)-N-(pyrazin-2-yl)-benzamide [Example 49],381
3,3-[2-(4-butyrylaminophenyl)ethyl]-5-(2-methoxy-(1S)-methyl-ethoxy)-N-(thiazol-2-yl)-benzamide [Example 133],322
4,3-{2-[3-(4-chlorobenzoylamino)phenyl]ethyl}-5-(2-methoxy-(1S)-methyl-ethoxy)-N-(t hiazol-2-yl)-benzamide [Example 126],364
5,"3-[2-(2,4-dimethoxyphenyl)ethyl]-5-(2-methoxy-(1S)-methyl-ethoxy)-N-(pyrazin-2-yl)-benzamide [Example 105]",298
6,3-[trans-2-(3-chlorophenyl)vinyl]-5-(2-methoxy-(1S)-methyl-ethoxy)-N-(pyrazin-2-yl)-benzamide [Example 54],382
7,"3-[trans-2-(2,6-difluorophenyl)vinyl]-5-(2-methoxy-(1S)-methyl-ethoxy)-N-(pyrazin-2-yl)-benzamide [Example 58]",212
8,"CCOC(=O)CC(=O)Nc1ccc(CCc2cc(O[C@@H](C)COC)cc(C(=O)Nc3nccs3)c2)cc1 [Example 135, 3-{2-[4-(malonamic acid ethyl ester)phenyl]ethyl}-5-(2-methoxy-(1S)-methyl-ethoxy)-N-(thiazol-2-yl)-benzamide]",204
9,"COC[C@H](C)Oc1cc(CCc2cccc(NC(=O)c3ccncc3)c2)cc(C(=O)Nc2nccs2)c1 [Example 128, 3-[2-(3-isonicotinamidephenyl)ethyl]-5-(2-methoxy-(1S)-methyl-ethoxy)-N-(thiazol-2-yl)-benzamide]",200
10,3-[2-(3-butyrylaminophenyl)ethyl]-5-(2-methoxy-(1S)-methyl-ethoxy)-N-(thiazol-2-yl)-benzamide [Example 119],370
11,"COc1cccc(/C=C/c2cc(OCC(C)C)cc(C(=O)Nc3nccs3)c2)c1OC [Example 5, 3-[trans-2-(2,3-dimethoxyphenyl)vinyl]-5-isobutoxy-N-(thiazol-2-yl)-benzamide]",173
12,3-{2-[4-(3-methyl-butyrylamino)phenyl]ethyl}-5-(2-methoxy-(1S)-methyl-ethoxy)-N-(thiazol-2-yl)-benzamide [Example 134],355
13,"CC(C)COc1cc(/C=C/c2c(F)cccc2F)cc(C(=O)Nc2nccs2)c1 [Example 72, 3-[trans-2-(2,6-difluorophenyl)vinyl]-5-isobutoxy-N-(thiazol-2-yl)-benzamide]",121
14,"COC[C@H](C)Oc1cc(/C=C/c2cccc([N+](=O)[O-])c2)cc(C(=O)Nc2ccc(C(=O)OC)cn2)c1 [Example 63, 3-[trans-2-(3-nitrophenyl)vinyl]-5-(2-methoxy-(1S)-methyl-ethoxy)-N-(nicotinic acid-3-methyl ester-6-yl)-benzamide]",403
15,"COC[C@H](C)Oc1cc(/C=C/c2ccccc2OC)cc(C(=O)Nc2ccc(C(=O)OC)cn2)c1 [Example 61, 3-[trans-2-(2-methoxyphenyl)vinyl]-5-(2-methoxy-(1S)-methyl-ethoxy)-N-(nicotinic acid-3-methyl ester-6-yl)-benzamide]",276
16,3-[2-(4-benzenesulfonylaminophenyl)ethyl]-5-(2-methoxy-(1S)-methyl-ethoxy)-N-(thiazol-2-yl)-benzamide [Example 144],411
17,COC[C@H](C)Oc1cc(CCc2ccccc2NC(=O)Cc2cccs2)cc(C(=O)Nc2nccs2)c1 [Example 114],275
18,"3-[2-(2,4-difluorophenyl)ethyl]-5-(2-methoxy-(1S)-methyl-ethoxy)-N-(1-methyl-1H-pyrazol-3-yl)-benzamide [Example 96]",184
19,"CCOC(=O)CC(=O)Nc1cccc(CCc2cc(O[C@@H](C)COC)cc(C(=O)Nc3nccs3)c2)c1 [Example 121, 3-{2-[3-(malonamic acid ethyl ester)phenyl]ethyl}-5-(2-methoxy-(1S)-methyl-ethoxy)-N-(thiazol-2-yl)-benzamide]",170
20,3-{2-[4-(phenylacetylamino)phenyl]ethyl}-5-(2-methoxy-(1S)-methyl-ethoxy)-N-(thiazol-2-yl)-benzamide [Example 137],270
21,"CCOC(=O)Nc1cccc(CCc2cc(O[C@@H](C)COC)cc(C(=O)Nc3nccs3)c2)c1 [Example 122, 3-{2-[3-(carbamic acid ethyl ester)phenyl]ethyl}-5-(2-methoxy-(1S)-methyl-ethoxy)-N-(thiazol-2-yl)-benzamide]",205
22,"CC(C)COc1cc(/C=C/c2ccccc2F)cc(C(=O)Nc2nccs2)c1 [Example 70, 3-[trans-2-(2-fluorophenyl)vinyl]-5-isobutoxy-N-(thiazol-2-yl)-benzamide]",102
23,"CC(C)Oc1cc(/C=C/c2ccccn2)cc(C(=O)Nc2ccc(C(=O)O)cn2)c1 [Comparative Example 1, reference compound]",2450
24,"CCOC(=O)Nc1ccccc1CCc1cc(O[C@@H](C)COC)cc(C(=O)Nc2nccs2)c1 [Example 117, 3-{2-[2-(carbamic acid ethyl ester)phenyl]ethyl}-5-(2-methoxy-(1S)-methyl-ethoxy)-N-(thiazol-2-yl)-benzamide]",229
25,"CC(C)/C=C\c1cc(OC(C)C)cc(C(=O)Nc2ncc(C(=O)O)s2)c1 [Comparative Example 2, reference compound]",1870

# Second part, the compound after the results:
row,EC50 [nM],Compound
1,55.8,"COC[C@H](C)Oc1cc(/C=C/c2ccccc2F)cc(C(=O)Nc2ccc(C(=O)O)cn2)c1 [Example 76, 3-[trans-2-(2-fluorophenyl)vinyl]-5-(2-methoxy-(1S)-methyl-ethoxy)-N-(nicotinic acid-6-yl)-benzamide]"
2,36.6,"3-[2-(2,5-difluorophenyl)ethyl]-5-(2-methoxy-(1S)-methyl-ethoxy)-N-(thiazol-2-yl)-benzamide [Example 86]"
3,109,"3-[trans-2-(2,4-difluorophenyl)vinyl]-5-(2-methoxy-(1S)-methyl-ethoxy)-N-(1-methyl-1H-pyrazol-3-yl)-benzamide [Example 35]"
4,159,"COC[C@H](C)Oc1cc(/C=C/c2ccccc2F)cc(C(=O)Nc2ccc(C(=O)OC)cn2)c1 [Example 64, 3-[trans-2-(2-fluorophenyl)vinyl]-5-(2-methoxy-(1S)-methyl-ethoxy)-N-(nicotinic acid-3-methyl ester-6-yl)-benzamide]"
5,95.1,"COC[C@H](C)Oc1cc(/C=C/c2ccc(F)cc2F)cc(C(=O)Nc2ccc(C(=O)O)cn2)c1 [Example 79, 3-[trans-2-(2,4-difluorophenyl)vinyl]-5-(2-methoxy-(1S)-methyl-ethoxy)-N-(nicotinic acid-6-yl)-benzamide]"
6,120,"COC[C@H](C)Oc1cc(/C=C/c2ccc(F)cc2)cc(C(=O)Nc2ccc(C(=O)O)cn2)c1 [Example 77, 3-[trans-2-(4-fluorophenyl)vinyl]-5-(2-methoxy-(1S)-methyl-ethoxy)-N-(nicotinic acid-6-yl)-benzamide]"
7,86.6,"3-[trans-2-(2,3,5-trifluorophenyl)vinyl]-5-(2-methoxy-(1S)-methyl-ethoxy)-N-(5-fluorothiazol-2-yl)-benzamide [Example 27]"
8,55.2,"3-[trans-2-(2,4-difluorophenyl)vinyl]-5-(2-methoxy-(1S)-methyl-ethoxy)-N-(thiazol-2-yl)-benzamide [Example 10]"
9,85.6,3-[2-(2-chlorophenyl)ethyl]-5-(2-methoxy-(1S)-methyl-ethoxy)-N-(1-methyl-1H-pyrazol-3-yl)-benzamide [Example 101]
10,52.1,3-[trans-2-(2-nitrophenyl)vinyl]-5-(2-methoxy-(1S)-methyl-ethoxy)-N-(5-fluorothiazol-2-yl)-benzamide [Example 19]
11,47.3,"3-[trans-2-(3,5-dimethoxyphenyl)vinyl]-5-(2-methoxy-(1S)-methyl-ethoxy)-N-(5-fluorothiazol-2-yl)-benzamide [Example 31]"
12,34.4,"3-[2-(2,6-difluorophenyl)ethyl]-5-(2-methoxy-(1S)-methyl-ethoxy)-N-(thiazol-2-yl)-benzamide [Example 87]"
13,113,3-[2-(4-aminophenyl)ethyl]-5-(2-methoxy-(1S)-methyl-ethoxy)-N-(thiazol-2-yl)-benzamide [Example 92]
